Measurements taken from EP4600261A1, “KERATIN YK93-2, AND PREPARATION METHOD THEREFOR, PHARMACEUTICAL COMPOSITION THEREOF AND USE THEREOF” (INSTITUTE OF MATERIA MEDICA, CHINESE ACADEMY OF MEDICAL …, priority 2022, dated 2024).
Counter-ions that a name gives are not always drawn.

Test system: mouse pain model
Assay: mouse pain model, acetic acid-induced writhing
Format: in vivo, Male Kunming mice
Conditions: Tramadol Hydrochloride 50mg/kg, 1% acetic acid intraperitoneally, writhing within 15 minutes
Procedure: • Animals: Male Kunming mice; • Drugs: Tramadol Hydrochloride Sustained Release Tablets, Glacial acetic acid, YK93-2; • Instruments: electronic balance, timer
• Normal control group; • Positive control group: Tramadol Hydrochloride group; • Protein YK93-2, (2g/kg) group.
Mice in the YK93-2 (2g/kg) group were administered by gavage, while mice in the model group were given an equal volume of CMC-Na once a day for 7 consecutive days. 30 minutes after the last administration, 1% acetic acid was administered intraperitoneally, and the writhing times of mice within 15 minutes was recorded, and the inhibition rate of drug-induced writhing reaction was calculated. The observation criteria were concave abdominal cavity, extended hind limbs, and raised buttocks.
The inhibition rate was calculated by (Mean number of writhing reactions in the normal control group - Mean number of writhing reactions in the treatment group)/Mean number of writhing reactions in the normal control group * 100%.

COc1cccc(C2(O)CCCCC2CN(C)C)c1 (stereo not shown) [Tramadol Hydrochloride]
Number of writhing: significantly reduced
